Values belong to the molecule of their own block, whether it stands above or below them.
How the values were obtained:
[1] = Toxicity in rat assessed as reduction in T cytotoxic cells in peripheral blood at 150 mg/kg, po measured for 14 days; format: organism-based, T-cell; details: in vivo, 336 h, time 14 day
[2] = biological target: CYP2D6 (Homo sapiens, UniProt P10635); test: Inhibition of CYP2D6 (unknown origin) at 3 uM relative to control; format: ADME
[3] = biological target: CYP2C9 (Homo sapiens, UniProt P11712); test: Inhibition of CYP2C9 (unknown origin) at 3 uM relative to control; format: ADME
Sequence of CYP2C9 (P11712 whole entry): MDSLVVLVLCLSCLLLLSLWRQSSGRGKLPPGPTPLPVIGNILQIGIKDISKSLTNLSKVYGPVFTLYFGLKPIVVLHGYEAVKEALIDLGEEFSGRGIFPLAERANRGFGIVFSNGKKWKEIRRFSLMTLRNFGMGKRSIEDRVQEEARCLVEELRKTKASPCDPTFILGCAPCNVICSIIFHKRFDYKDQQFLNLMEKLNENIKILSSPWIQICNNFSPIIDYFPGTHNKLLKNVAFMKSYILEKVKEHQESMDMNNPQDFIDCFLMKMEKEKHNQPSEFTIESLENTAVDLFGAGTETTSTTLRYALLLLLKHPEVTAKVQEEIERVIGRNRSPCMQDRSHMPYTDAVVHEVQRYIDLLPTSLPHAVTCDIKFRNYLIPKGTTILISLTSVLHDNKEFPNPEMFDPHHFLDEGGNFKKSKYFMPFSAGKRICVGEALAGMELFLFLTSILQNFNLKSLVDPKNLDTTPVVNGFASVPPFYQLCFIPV

[4] = Cmax in Sprague-Dawley rat at 1 mg/kg, iv; format: ADME, organism-based; set-up: dose 1 mg/kg, route iv; details: in vivo
[5] = biological target: Voltage-gated inwardly rectifying potassium channel KCNH2 (Homo sapiens, UniProt Q12809); test: Inhibition of hERG by patch clamp assay; format: toxicity
Sequence of Voltage-gated inwardly rectifying potassium channel KCNH2 (Q12809 whole entry): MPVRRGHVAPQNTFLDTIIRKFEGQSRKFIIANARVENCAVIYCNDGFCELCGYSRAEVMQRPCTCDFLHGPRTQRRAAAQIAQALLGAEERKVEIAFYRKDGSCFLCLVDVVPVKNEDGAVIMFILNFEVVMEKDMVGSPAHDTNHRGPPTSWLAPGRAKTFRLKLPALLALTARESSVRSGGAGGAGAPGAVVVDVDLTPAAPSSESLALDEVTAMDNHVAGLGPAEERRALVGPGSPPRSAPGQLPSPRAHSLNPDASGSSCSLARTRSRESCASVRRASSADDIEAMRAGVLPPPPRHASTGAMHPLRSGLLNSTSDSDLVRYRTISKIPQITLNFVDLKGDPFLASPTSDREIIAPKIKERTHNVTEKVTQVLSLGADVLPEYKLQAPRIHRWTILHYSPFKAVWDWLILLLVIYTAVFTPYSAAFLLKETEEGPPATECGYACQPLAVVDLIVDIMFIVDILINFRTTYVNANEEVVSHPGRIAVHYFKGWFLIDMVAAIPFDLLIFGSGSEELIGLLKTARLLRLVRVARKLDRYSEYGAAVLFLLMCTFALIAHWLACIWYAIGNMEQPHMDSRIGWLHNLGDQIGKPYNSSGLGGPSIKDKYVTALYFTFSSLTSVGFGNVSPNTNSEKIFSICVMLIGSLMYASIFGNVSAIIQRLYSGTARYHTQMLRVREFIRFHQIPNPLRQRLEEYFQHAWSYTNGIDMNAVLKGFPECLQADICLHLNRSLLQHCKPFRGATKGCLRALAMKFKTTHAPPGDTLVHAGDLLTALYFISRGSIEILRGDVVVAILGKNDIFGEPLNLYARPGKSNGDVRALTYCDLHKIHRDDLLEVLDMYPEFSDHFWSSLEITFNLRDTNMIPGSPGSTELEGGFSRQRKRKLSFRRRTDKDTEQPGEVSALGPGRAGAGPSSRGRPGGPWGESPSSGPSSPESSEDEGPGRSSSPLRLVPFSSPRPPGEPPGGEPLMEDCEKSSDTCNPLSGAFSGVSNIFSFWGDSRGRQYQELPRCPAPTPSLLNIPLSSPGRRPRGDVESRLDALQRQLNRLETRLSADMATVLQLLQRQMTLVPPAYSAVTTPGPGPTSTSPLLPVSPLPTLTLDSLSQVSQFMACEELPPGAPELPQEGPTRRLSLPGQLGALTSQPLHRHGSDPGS

[6] = biological target: T1, Proprotein convertase subtilisin/kexin type 9 (Homo sapiens, UniProt Q8NBP7); test: Inhibition of full length human PCSK9 expressed in human Huh-7 cells by ELISA analysis; format: cell-based
T1 sequence (Q8NBP7 31-152 limits assumed): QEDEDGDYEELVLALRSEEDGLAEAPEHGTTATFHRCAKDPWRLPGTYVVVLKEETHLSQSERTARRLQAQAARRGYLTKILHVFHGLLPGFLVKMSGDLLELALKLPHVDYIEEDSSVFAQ
T1 sequence (Q8NBP7 153-692 limits assumed): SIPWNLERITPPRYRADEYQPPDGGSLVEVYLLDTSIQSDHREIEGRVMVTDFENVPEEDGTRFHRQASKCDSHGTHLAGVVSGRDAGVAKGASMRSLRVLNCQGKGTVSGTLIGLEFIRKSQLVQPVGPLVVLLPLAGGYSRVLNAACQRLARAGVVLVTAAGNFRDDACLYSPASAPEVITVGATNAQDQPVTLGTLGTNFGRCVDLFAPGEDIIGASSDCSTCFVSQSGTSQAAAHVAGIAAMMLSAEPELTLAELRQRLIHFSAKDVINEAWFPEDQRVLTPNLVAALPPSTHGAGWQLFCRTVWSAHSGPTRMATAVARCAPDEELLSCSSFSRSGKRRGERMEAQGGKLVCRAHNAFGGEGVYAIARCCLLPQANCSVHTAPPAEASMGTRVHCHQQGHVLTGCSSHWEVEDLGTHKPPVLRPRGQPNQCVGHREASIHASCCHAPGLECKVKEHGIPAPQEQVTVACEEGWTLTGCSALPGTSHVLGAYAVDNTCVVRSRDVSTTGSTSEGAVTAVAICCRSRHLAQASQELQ

[7] = Apparent permeability across basolateral to apical side in MDCK-MDR1 cells; format: ADME, cell-based, Canis lupus familiaris; details: dog, read-out: permeability
[8] = tested on: Mus musculus; test: Downregulation of PCSK9 level in po dosed mouse; format: functional, organism-based; details: dose 10-300 mg/kg
[9] = Unbound fraction in human plasma by equilibrium dialysis analysis; format: ADME, cell-free
[10] = Cmax in rat at 25 mg/kg, po; format: ADME, organism-based; set-up: dose 25 mg/kg, route po; details: in vivo
[11] = Toxicity in rat assessed as reduction in B cells in peripheral blood at 150 mg/kg, po measured for 14 days; format: organism-based; details: in vivo, 336 h, time 14 day
[12] = Toxicity in rat assessed as mortality at 25 to 400 mg/kg, po measured for 14 days; format: organism-based; details: in vivo, 336 h, dose 25-400 mg/kg, time 14 day
[13] = (§1) Cytotoxicity against rat Bone marrow cell assessed as inhibition of cell growth with (R)-4-(3H-[1,2,3]triazolo[4,5-b]pyridin-3-yl)-N-(3-chloropyridin-2-yl)-N-(piperidin-3-yl) benzamide as high potent effect standard by celltiter-glo assay; format: toxicity, cell-based; details: rat, rat bone marrow cells
[14] = Apparent permeability of compound in MDCK-II cells; format: ADME, cell-based, Canis lupus familiaris; details: dog, read-out: permeability
[15] = Apparent permeability across apical to basolateral side in MDCK-MDR1 cells; format: ADME, cell-based, Canis lupus familiaris; details: dog, read-out: permeability
[16] = Cytotoxicity against human CD34-positive cell assessed as reduction in cell growth by celltiter-glo assay; format: toxicity, cell-based; details: human CD34-positive cells
[17] = Volume of distribution at steady state in Sprague-Dawley rat at 1 mg/kg, iv; format: ADME, organism-based; details: in vivo, read-out: Vdss
[18] = Toxicity in rat assessed as reduction in T helper cells in peripheral blood at 150 mg/kg, po measured for 14 days; format: organism-based, T-cell; details: in vivo, 336 h, time 14 day
[19] = biological target: T2, CYP1A2 (Homo sapiens, UniProt P05177); test: Inhibition of CYP1A2 (unknown origin) at 3 uM relative to control; format: ADME
T2 sequence (P05177 whole entry): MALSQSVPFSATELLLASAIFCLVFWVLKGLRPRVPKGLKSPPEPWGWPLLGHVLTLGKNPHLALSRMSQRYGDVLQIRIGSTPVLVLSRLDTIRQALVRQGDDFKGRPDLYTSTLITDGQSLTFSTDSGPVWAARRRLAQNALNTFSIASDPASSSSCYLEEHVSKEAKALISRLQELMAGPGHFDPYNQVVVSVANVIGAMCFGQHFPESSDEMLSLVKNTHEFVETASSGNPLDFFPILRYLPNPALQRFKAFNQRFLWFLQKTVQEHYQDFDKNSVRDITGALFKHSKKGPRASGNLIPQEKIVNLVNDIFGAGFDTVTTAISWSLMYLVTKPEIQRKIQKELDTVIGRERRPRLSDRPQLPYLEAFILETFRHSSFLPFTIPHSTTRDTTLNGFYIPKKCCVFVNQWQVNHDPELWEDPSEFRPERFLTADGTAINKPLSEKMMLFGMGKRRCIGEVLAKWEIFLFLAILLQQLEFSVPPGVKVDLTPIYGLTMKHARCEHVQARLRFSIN

[20] = Lipophilicity, log D of the compound by shake flask method; format: physicochemical; details: octanol/water
[21] = Unbound fraction in mouse plasma by equilibrium dialysis analysis; format: ADME, cell-free
[22] = Unbound fraction in rat plasma by equilibrium dialysis analysis; format: ADME, cell-free
[23] = biological target: CYP3A4 (Homo sapiens, UniProt P08684); test: Inhibition of CYP3A4 (unknown origin) at 3 uM relative to control; format: ADME
Sequence of CYP3A4 (P08684 whole entry): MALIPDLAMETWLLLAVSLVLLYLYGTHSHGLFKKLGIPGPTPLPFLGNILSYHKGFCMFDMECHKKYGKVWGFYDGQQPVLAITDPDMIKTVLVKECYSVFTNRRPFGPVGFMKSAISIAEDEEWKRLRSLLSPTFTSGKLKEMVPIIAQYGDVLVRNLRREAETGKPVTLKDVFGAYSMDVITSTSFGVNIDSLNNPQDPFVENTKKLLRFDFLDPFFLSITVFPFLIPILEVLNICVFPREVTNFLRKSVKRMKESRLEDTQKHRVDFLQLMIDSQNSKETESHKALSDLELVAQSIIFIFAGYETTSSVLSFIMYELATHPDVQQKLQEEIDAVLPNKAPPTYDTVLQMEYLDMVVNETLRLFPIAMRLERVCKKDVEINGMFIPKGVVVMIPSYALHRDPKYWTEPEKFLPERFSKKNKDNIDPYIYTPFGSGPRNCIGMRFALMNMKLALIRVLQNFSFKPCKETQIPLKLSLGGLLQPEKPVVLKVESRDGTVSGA

[24] = Toxicity in rat assessed as reduction in T cells in peripheral blood at 150 mg/kg, po measured for 14 days; format: organism-based, T-cell; details: in vivo, 336 h, time 14 day
[25] = Oral bioavailability in Sprague-Dawley rat at 5 mg/kg; format: ADME, organism-based; details: in vivo
[26] = Half life in Sprague-Dawley rat at 1 mg/kg, iv; format: ADME, organism-based; details: in vivo
[27] = Clearance in Sprague-Dawley rat at 1 mg/kg, iv; format: ADME, organism-based; details: in vivo
[28] = Selectivity index, ratio of IC50 for cytotoxicity against rat Bone marrow cell assessed as inhibition of cell growth by celltiter-glo assay to IC50 for inhibition of full length human PCSK9 expressed in human Huh-7 cells by ELISA analysis
[29] = Cytotoxicity against rat Bone marrow cell assessed as inhibition of cell growth with puromycin as high potent effect standard by celltiter-glo assay; format: toxicity, cell-based; details: rat bone marrow cells
[30] = biological target: T1, Proprotein convertase subtilisin/kexin type 9; test: Inhibition of full length human PCSK9 expressed in human Huh-7 cells at 20 uM by ELISA analysis relative to control; format: cell-based
[31] = tested on: Bone marrow cell; test: as §1; format: toxicity, cell-based; details: bone marrow cell

Sequence of CYP2D6 (P10635 whole entry): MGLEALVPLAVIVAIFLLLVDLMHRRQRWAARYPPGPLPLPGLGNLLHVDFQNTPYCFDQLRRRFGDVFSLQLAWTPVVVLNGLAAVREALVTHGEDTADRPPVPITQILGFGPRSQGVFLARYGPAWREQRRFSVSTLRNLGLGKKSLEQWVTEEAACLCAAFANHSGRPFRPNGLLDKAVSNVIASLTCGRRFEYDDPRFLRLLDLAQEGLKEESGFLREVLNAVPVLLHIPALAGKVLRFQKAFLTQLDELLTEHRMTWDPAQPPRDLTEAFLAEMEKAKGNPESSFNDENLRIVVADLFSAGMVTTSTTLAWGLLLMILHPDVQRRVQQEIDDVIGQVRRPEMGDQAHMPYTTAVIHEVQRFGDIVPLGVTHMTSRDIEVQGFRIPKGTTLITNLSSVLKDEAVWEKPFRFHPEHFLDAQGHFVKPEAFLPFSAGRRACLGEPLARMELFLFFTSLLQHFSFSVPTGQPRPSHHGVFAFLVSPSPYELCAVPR

Structure (SMILES): Cc1cccnc1N(C(=O)c1ccc(-c2cnn3cccnc23)cc1)[C@@H]1CCCNC1
- Activity [1]: Non-Toxic
- inhibition at 3 µM [2]: < 5%
- inhibition at 3 µM [3]: < 5%
- Cmax [4]: 121 ng/mL
- IC50 [5]: 56.5 µM
- IC50 [6]: 2.25 µM
- Papp B→A [7]: 15.7 ×10⁻⁶ cm/s
- Activity [8]: Dose-Dependent Effect
- Fu [9]: 0.54%
- Cmax [10]: 255 ng/mL
- Activity [11]: Non-Toxic
- Activity [12]: Non-Toxic
- IC50 [13]: 18.2 µM
- Papp [14]: 7 ×10⁻⁶ cm/s
- Papp A→B [15]: 0.4 ×10⁻⁶ cm/s
- IC50 [16]: 13.6 µM
- Vd [17]: 3 L/kg
- Activity [18]: Non-Toxic
- inhibition at 3 µM [19]: < 5%
- logD [20]: 0.6
- Fu [21]: 0.37%
- Fu [22]: 0.32%
- inhibition at 3 µM [23]: < 5%
- Activity [24]: Non-Toxic
- bioavailability [25]: 20%
- half-life [26]: 1.7 h
- clearance [27]: 43.6 mL/min/kg
- Ratio IC50 [28]: 7.47
- IC50 [29]: 16.8 µM

Structure (SMILES): O=C(c1ccc(-n2nnc3cccnc32)cc1)N(c1ncccc1Cl)[C@H]1CNC[C@H](Oc2ccccc2)C1 (racemic)
- IC50 [6]: > 20 µM

Structure (SMILES): O=C(c1ccc(-c2cnn3cccnc23)cc1)N(c1ncccc1C(F)(F)F)[C@@H]1CCCNC1
- inhibition at 3 µM [2]: < 40%
- inhibition at 3 µM [3]: < 40%
- IC50 [5]: 57.6 µM
- IC50 [6]: 2.79 µM
- Papp B→A [7]: 26.4 ×10⁻⁶ cm/s
- Fu [9]: 0.41%
- IC50 [13]: 21.2 µM
- Papp [14]: 7 ×10⁻⁶ cm/s
- Papp A→B [15]: 0.7 ×10⁻⁶ cm/s
- IC50 [16]: 35.9 µM
- inhibition at 3 µM [19]: < 40%
- logD [20]: 1.1
- Fu [21]: 0.13%
- inhibition at 3 µM [23]: < 40%
- Ratio IC50 [28]: 7.6
- IC50 [29]: > 20 µM

Structure (SMILES): O=C(c1ccc(-c2cnn3cccnc23)cc1)N(c1ncccc1-c1ccccc1)[C@@H]1CCCNC1
- IC50 [6]: 1.8 µM
- Ratio IC50 [28]: 2.43
- IC50 [29]: 4.39 µM

Structure (SMILES): NC(=O)NC[C@H]1CNC[C@H](N(C(=O)c2ccc(-n3nnc4cccnc43)cc2)c2ncccc2Cl)C1 (racemic)
- IC50 [6]: > 20 µM

Structure (SMILES): Cc1cnc2c(c1)nnn2-c1ccc(C(=O)N(c2ncccc2Cl)[C@@H]2CCCNC2)nc1
- IC50 [13]: 27.1 µM
- IC50 [29]: 19.9 µM

Structure (SMILES): COC(=O)NC[C@H]1CNC[C@H](N(C(=O)c2ccc(-n3nnc4cccnc43)cc2)c2ncccc2Cl)C1 (racemic)
- IC50 [6]: > 20 µM

Structure (SMILES): O=C(c1ccc(-n2nnc3cccnc32)cc1)N(c1ncccc1Cl)[C@H]1CNC[C@H](c2ccccc2)C1 (racemic)
- IC50 [6]: > 20 µM
- IC50 [13]: 12.5 µM

Structure (SMILES): O=C(c1ccc(-c2cnn3cccnc23)cc1)N(c1ncccc1C1CC1)[C@@H]1CCCNC1
- IC50 [6]: 7.74 µM

Structure (SMILES): N#Cc1cccnc1N(C(=O)c1ccc(-c2cnn3cccnc23)cc1)[C@@H]1CCCNC1
- IC50 [6]: > 20 µM

Further lines, with some results ahead:

- inhibition [30]: 43%
Structure (SMILES): C[C@H]1CNC[C@H](N(C(=O)c2ccc(-n3nnc4cccnc43)cc2)c2ncccc2Cl)C1 (racemic)

- inhibition [30]: 11%
Structure (SMILES): O=C(c1ccc(-n2nnc3cccnc32)cc1)N(c1ncccc1Cl)[C@H]1CNC[C@@H](CO)C1 (racemic)
- IC50 [13]: > 100 µM

- IC50 [6]: 1.09 µM
Structure (SMILES): Cc1ccnc(N(C(=O)c2ccc(-n3nnc4cccnc43)cc2)[C@@H]2CCCNC2)c1Cl
- Ratio IC50 [28]: 0.35
- IC50 [29]: 0.38 µM

- inhibition [30]: 38%
Structure (SMILES): C[C@@H]1CNC[C@H](N(C(=O)c2ccc(-n3nnc4cccnc43)cc2)c2ncccc2Cl)C1 (racemic)

- IC50 [6]: 1.97 µM
Structure (SMILES): Cc1cccnc1N(C(=O)c1ccc(-n2nnc3cccnc32)cc1)[C@@H]1CCCNC1
- Ratio IC50 [28]: 0.5
- IC50 [29]: 0.99 µM

- IC50 [6]: 4.6 µM
Structure (SMILES): O=C(c1ccc(-n2nnc3cccnc32)cc1)N(c1ncccc1Cl)[C@H]1CNC[C@H](CO)C1
- IC50 [31]: 7.2 µM

- IC50 [6]: 6.84 µM
Structure (SMILES): O=C(c1ccc(-n2nnc3cccnc32)cc1)N(c1nccn1C1CC1)[C@@H]1CCCNC1
- Ratio IC50 [28]: 0.18
- IC50 [29]: 1.24 µM

- Cmax [10]: 312 ng/mL
Structure (SMILES): O=C(c1ccc(-n2nnc3cccnc32)cc1)N(c1ncccc1Cl)[C@@H]1CCCNC1
- IC50 [13]: 3.23 µM
- IC50 [29]: 1.15 µM
